# Reference: patent US6951647B2, “T cell binding ligand peptides and method of inducing a cellular immune response” (Cel-Sci Corporation, priority 2001, dated 2005)
# Values joined by “and” are separate entries in the source; they are usually repeats but may differ in a detail not shown here. Identical values can stand only once.
# Columns and labels:
# Type in all cases: in vivo
# D Clade = assay: ELISA cross clade recognition by sera of immunized mice, D Clade; settings: day 63 test bleeding, sera 1:200, individual mouse
# Procedure: (§1) Mice in groups (5-10 animals per group as designated) are immunized with the LEAPS constructs (25 μg/dose) of SEQ ID NO's:37, 38 and 39, in 0.2 mL emulsified 1:1 with adjuvant (Seppic's ISA-51 or Corixa's microfluidized MPL S/E) on days 0 and 14. Mice are evaluated by Delayed Type of Hypersensitivity (DTH) by inoculation on day 26 with 20 μl of a solution of saline or mH (SEQ ID NO:6) (25 μg in saline) in the left or right ear respectively. The DTH response is determined by measurement of the ear thickness 48 hours later and expressed as increase in ear thickness (mm) of experimental ear compared to that of the control ear. Individual animal sera are collected for measurement of antibody on day 28, 42, 63 and 77. Sera from individual animals and group pools are evaluated for specific anti-mH antibody, for total antibody, IgG1, IgG2a and IgG3 antibody isotype and cross clade titer at selected time points as indicated.
# (§2) The mouse sera for the ELISA was used at a dilution of 1:200. Again, clearly, the construct provides higher signals indicative of higher levels of the antibodies that recognized other clades besides the parental one (Clade B) of mH.
# (§3) A cross clade analysis for pools of day 42 test bleedings from the same groups as used in Table 3, were obtained and the results are shown in Table 4.
# modified HGP-30 = assay: ELISA antibody screening of sera of immunized mice on modified HGP-30; settings: day 63 test bleeding, sera 1:200, individual mouse
# Procedure: as §1, with “indicated. […]” for “indicated.”
# C Clade = assay: ELISA cross clade recognition by sera of immunized mice, C Clade; settings: day 63 test bleeding, sera 1:200, individual mouse
# Procedure: as §1, §2, §3
# E Clade = assay: ELISA cross clade recognition by sera of immunized mice, E Clade; settings: day 63 test bleeding, sera 1:200, individual mouse
# Procedure: as §1, §2, §3
# [1] = test system: modified HGP-30 (mH, SEQ ID NO:6); assay: Isotype analysis (ELISA) of anti-mH antibody in sera of immunized mice; parameters: IgG1 / IgG2a / IgG2b / IgG3: unit not given here; settings: ELISA signal, day 42 test bleeding
# Procedure: as §1
# The results of an isotype analysis of day 42 test bleedings with G′-mH (SEQ ID NO:37), G-mH (SEQ ID NO:38), J-mH (SEQ ID NO:39), F-mH (SEQ ID NO:40) and F-HGP-30 (SEQ ID NO:41), are shown in Table 1.
# An isotype analysis for pools of day 28 test bleedings G-mH, G′-mH and m-HGP-30/KLH using either MPL S/E or ISA51 as adjuvant, are shown in Table 3.
# B Clade = assay: ELISA cross clade recognition by sera of immunized mice, B Clade; settings: day 63 test bleeding, sera 1:200, individual mouse
# Procedure: as §1, §2, §3
substance,measurement,setting,value
"VQG EES NDK GGG YSV HQR IDV KDT KEA LEK IEE EQN KSK KKA (DLLKNGERIEKVEGGGSTAPPAHGV) [SEQ ID NO: 63, Peptide F linked by GGG spacer to HGP-30]",ELISA signal on D Clade,D Clade,0.000 (5×) and 0.012 and 0.005 and 1.941 and 0.386 and 0.050
same,ELISA signal on modified HGP-30,modified HGP-30,0.065 and 0.216 and 0.128 and 0.000 and 0.110 and 0.017 and 0.201 and 0.623 and 0.747 and 0.013
same,ELISA signal on C Clade,C Clade,0.000 (5×) and 0.135 and 0.010 and 1.878 and 0.650 and 1.051
same,ELISA signal on E Clade,E Clade,0.000 (7×) and 1.565 and 0.042 and 1.010
same,IgG1,[1]; group Average,0.652
same,IgG2a,[1]; group Average,0.071
same,IgG2b,[1]; group Average,0.024
same,IgG3,[1]; group Average,0.044
same,IgG1,[1]; individual mouse,0.761 and 0.181 and 0.649 and 0.417 and 0.022 and 1.379 and 0.030 and 0.349 and 0.717 and 2.018
same,IgG2a,[1]; individual mouse,0.051 and 0.018 and 0.020 and 0.007 and 0.000 (2×) and 0.048 and 0.026 and 0.192 and 0.350
same,IgG2b,[1]; individual mouse,0.003 and 0.001 and 0.007 and 0.005 and 0.006 and 0.028 and 0.047 and 0.000 and 0.027 and 0.117
same,IgG3,[1]; individual mouse,0.040 and 0.006 and 0.104 and 0.173 and 0.009 and 0.013 and 0.007 and 0.000 and 0.058 and 0.028
same,ELISA signal on B Clade,B Clade,0.000 (6×) and 0.282 and 1.977 and 0.667 and 0.011
